Data on 13 compounds can be found in the SangsterLogP compilation.

As usually defined, the logP is the decadic logarithm of the partition coefficient of the neutral form, usually between octanol and water.

This series is described as follows: method code SF-AS, from DOI: 10.1021/bi00362a019, PMID: 3017413.
For `CCOc1ccc(/C=N/N=C(N)N)cc1`, the logP is 0.24. `CC(C)(C)Oc1ccc(/C=N/N=C(N)N)cc1` had a logP of 1.38.

In turn, `COc1ccc(/C=N/N=C(N)N)cc1` had a logP of 0.29. Take `CN(C)c1ccc(/C=N/N=C(N)N)cc1`: the logP came to 0.28. As for `NC(N)=N/N=C/c1ccc(Oc2ccccc2)cc1`, the figure is 1.87; as for `N=C(N)NN=Cc1ccc(-c2ccccc2)cc1`, 1.49; as for `NC(N)=N/N=C/c1cccc([N+](=O)[O-])c1`, 0.01. Take `N=C(N)NN=Cc1ccc(Cl)cc1`: the logP turned out to be 0.96. Compound `NC(N)=N/N=C/c1ccccc1[N+](=O)[O-]` yielded a logP of 0.53. As for `NC(N)=N/N=C/c1ccc([N+](=O)[O-])cc1`, the figure is 0.87. Compound `NC(N)=N/N=C/c1ccc(Cl)c([N+](=O)[O-])c1` displayed a logP of 0.53.

Compound `CCN(CC)c1ccc(C=NN=C(N)N)cc1` gave a logP of 0.56.

The compound `NC(N)=N/N=C/c1ccc(Br)cc1` returned a logP of 1.3.
